In US9801922B2, “Compositions and methods of treating cancer” (UNIVERSITY OF IOWA RESEARCH FOUNDATION, priority 2011, dated 2017):

What was measured:
[1] = system: thioredoxin reductase (TRR); assay: Thioredoxin reductase activity assay in treated SUM159 cells; assay type: cell-based, human; conditions: for TRR activity: control 135
Experimental: FIG. 8: Intracellular thioredoxin reductase (TRR) activity measured in BSO, DTPP, and AUR exposed SUM159 cells. Asynchronously growing cultures of SUM159 were plated and treated as described in FIG. 1. Cells were harvested and scraped in PBS at 4° C. Whole cell homogenates were used for biochemical analysis of thioredoxin reductase activity. Errors represent Mean±1 SD of 4 samples from two separate experiments (n=4). *p<0.001 as compared to Control.
Thioredoxin Reductase Assay: Thioredoxin Reductase activity was measured by using Thioredoxin Reductase Assay Kit purchased from Sigma (St Louis, Mo.). 400,000 cells/100 mm dishes of SUM159 cells were plated and treated with BSO, DTPP and AUR as described above. When cells were grown to 70-80% confluency on 100 mm dishes and scraped in PBS at 4° C., centrifuged, and the cell pellets were frozen at −20° C. until analysis. The assay was performed according to manufacturer's instructions. Briefly, working buffer containing 100 mM KPO4, pH 7.0, 10 mM EDTA, and 0.24 mM NADPH was prepared, and samples were added with working buffer along with 5,5′-dithiobis-(2-nitrobenzoic acid) (Eliman's reagent, DTNB). The rate of DTNB's reduction to 2-nitro-5-thiobenzoate (TNB) was then measured spectrophotometrically at […]. For each sample, this reaction was replicated, in tandem, with the sample in the presence of an inhibitor to thioredoxin reductase (TrxR), included with the kit. The difference between the sample rate with and without the TrxR inhibitor was taken to be the difference caused by TrxR activity in the sample. Each sample was then normalized to protein, by using the Lowry protein assay, as described previously (Lowry, O. H.; Rosebrough, N.J.; Farr, A. L.; Randall, R. J. Protein measurement with the Folin phenol reagent. J Biol Chem 193:265-275; 1951). The thioredoxin reductase activity of each sample was then normalized as a percentage of that of the control cells.

[2] = system: SUM159 human breast cancer cells; assay: ALDEFLUOR assay of ALDH positive (cancer stem) cell fraction; assay type: cell-based; conditions: for percentage of ALDH positive cell population: 100 μM BSO, 1 μM DTPP 24 h, 500 nM AUR 15 min, control 2.61%; for ALDH positive cell population decreased to (relative to control): single agent
Experimental: FIG. 16: The fraction of Aldehyde dehydrogenase activity positive (ALDH+) cancer cells (also known as early progenitor cancer stem cells) is decreased in SUM159 human breast cancer cells treated with inhibitors of glutathione and thioredoxin metabolism (BSO, AUR, respectively) combined with DTPP. Asynchronously growing cultures of SUM159 were incubated with 100 μM BSO and/or 1 μM DTPP for 24 hours in HMEC media. 500 nM AUR were added into cell culture 15 minutes before the assay. Monolayer cultures were harvested and trypsinized, washed once with PBS and labeled 40 minutes in PBS at 37° C. with BAAA (1 μmol/1 per 1 x 10^6 cells). The negative controls were also added with 50mmol/L diethylaminobenzaldehyde (DEAB). After labeling, Hochest dye for viability assay was added and then kept on ice. Each sample was then analyzed for the ALDH positive cell percentage of 100,000 cells by flow cytometry. Errors represent Mean ±1 SD of 3 samples from two separate experiments […], * p <0.05 as compared to Control.
Estimation of Cancer stem cell fractions using the Aldefluor assay: The ALDEFLUOR kit (StemCell Technologies, Durham, N.C., USA) was used to determine the subpopulation of cancer cells with a high ALDH enzymatic activity. SUM159 human breast cancer cells were plated and treated as described earlier in clonogenic survival experiment. After the exposure, the cells were trypsinized and washed with PBS once then re-suspended in ALDEFLUOR assay buffer containing ALDH substrate (BAAA, 1 μmol/l per 1×10^6 cells) and incubated for 40 minutes at 37° C. As negative control, for each sample of cells an aliquot was treated with 50 mmol/L diethylaminobenzaldehyde (DEAB), a specific ALDH inhibitor. In order to sort out non-viable cells, each sample received 4 μg/ml of Hoechst 33258 (Molecular Probes, Invitrogen). Cells were filtered through […] and kept on ice until analysis. Samples were analyzed by using a Becton Dickinson LSR II with 355 nm, 488 nm, and 633 nm lasers. (Becton Dickinson Immunocytometry System, INC., Mountain View, Calif.). The ALDH positive cells of 100,000 cells were determined by using the sorting gate established with DEAB negative control and Hochest viability control. The ALDH positive cells were represented by percentage of total 100,000 cell events.

[3] = system: Human thioredoxin-1 (hTrx-1); assay: Thioredoxin native redox western blot; assay type: cell-based; conditions: SUM159
Experimental: FIG. 7: Human thioredoxin-1 (hTrx-1) native redox western blot analysis of BSO, DTPP and AUR treated SUM159. Asynchronously growing cultures of SUM159 were plated and treated as described in FIG. 1. Cells were harvested and scraped in PBS at 4° C. Whole cell homogenates were used for native gel redox western blot analysis of […].
Thioredoxin Redox Western: The human thioredoxin-1 protein level was determined by Thioredoxin redox western. Approximately 2-3 million treated or untreated SUM159 cells were lysed in G-lysis buffer (50 mM Tris-HCl, pH 8.3, 3 mM EDTA, 6 M guanidine-HCl, 0.5% Triton X-100) containing 50 mM iodoacetic acid (pH 8.3). The lysate was incubated in the dark for thirty minutes. The lysates were then centrifuged in G-25 microspin columns (GE Healthcare). Protein was then quantified, from the eluent by performing a Bradford protein assay, as previously described (Bradford, M. M. A rapid and sensitive method for the quantitation of microgram quantities of protein utilizing the principle of protein-dye binding. Anal Biochem 72:248-254; 1976). Equal amounts of protein were then added to a 15% acrylamide native gel. The gel was then run at 100 V for approximately 1.5 h. The proteins contained in the gel were then transferred to a nitrocellulose membrane (BIORAD Labs), using a semi-dry transfer protocol. The nitrocellose membrane was then washed in PBST (Phosphate buffered saline with 0.1% Tween) before being incubated at 4 overnight with the primary antibody, 1:1000 goat anti-hTrx-1 (American Diagnostica, Inc.) in PBST with 2% BSA. […]

| Structure (SMILES) | effect on TRR activity, in words [1] | effect on ALDH positive cell population, in words ([2]; 100 μM BSO 24 h) | ratio of oxidized thioredoxin to total thioredoxin, in words [3] | increase of TRR activity [1] | TRR activity ([1]; 1 μM DTPP 24 h) | percentage of ALDH positive cell population [2] | ALDH positive cell population decreased to (relative to control) [2] | TRR activity ([1]; 500 nM AUR 15 min) | increase of ratio of oxidized thioredoxin to total thioredoxin compared to control [3] | increase of the ratio of oxidized Trx-1 to reduced Trx-1 ([3]; 15 min AUR) |
| --- | --- | --- | --- | --- | --- | --- | --- | --- | --- | --- |
| CCCCS(=N)(=O)CCC(N)C(=O)O [BSO, L-buthionine-[S,R]-sulfoximine, reference compound] | not capable of altering the TRR activity | not able to decrease the ALDH positive cell population | no ratio change |  |  |  |  |  |  |  |
| CCCCCCCCCC[P+](c1ccccc1)(c1ccccc1)c1ccccc1 [DTPP, Decyl-Triphenylphosphonium] |  |  |  | 2 fold | 311 mU/mg | 1.16% | around 50% |  |  |  |
| CC[PH](CC)(CC)[Au][S][C@@H]1O[C@H](COC(C)=O)[C@@H](OC(C)=O)[C@H](OC(C)=O)[C@H]1OC(C)=O [AUR, S-triethylphosphinegold(I)-2,3,4,6-tetra-O-acetyl-1-thio-β-D-glucopyranoside] |  |  |  |  |  | 1.11% | around 50% | 10 mU/mg protein | around 2 fold | 2 fold |
